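These data come from cells grown in 96-well plates and exposed to compound for 48 hours at five concentrations. Abbreviation: GI50, concentration required for 50% inhibition of growth. TGI: concentration producing complete growth inhibition.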
Columns and labels:
Test in all cases: NCI anticancer screen, dose series, 48 h
786-0 renal = tested on: 786-0 renal
EKVX NSCLC = tested on: EKVX NSCLC
HL-60(TB) leukemia = tested on: HL-60(TB) leukemia
NCI/ADR-RES ovarian = tested on: NCI/ADR-RES ovarian
OVCAR-4 ovarian = tested on: OVCAR-4 ovarian
OVCAR-5 ovarian = tested on: OVCAR-5 ovarian
RPMI-8226 leukemia = tested on: RPMI-8226 leukemia
SF-295 CNS = tested on: SF-295 CNS
UACC-257 melanoma = tested on: UACC-257 melanoma
NCI-H522 lung = tested on: NCI-H522 lung

SMILES	TGI (786-0 renal) [µM]	TGI (EKVX NSCLC) [µM]	TGI (HL-60(TB) leukemia) [µM]	TGI (NCI/ADR-RES ovarian) [µM]	TGI (OVCAR-4 ovarian) [µM]	TGI (OVCAR-5 ovarian) [µM]	TGI (RPMI-8226 leukemia) [µM]	TGI (SF-295 CNS) [µM]	TGI (UACC-257 melanoma) [µM]	GI50 (786-0 renal) [µM]	GI50 (EKVX NSCLC) [µM]	GI50 (NCI-H522 lung) [µM]	TGI (NCI-H522 lung) [µM]	GI50 (NCI/ADR-RES ovarian) [µM]	GI50 (OVCAR-4 ovarian) [µM]	GI50 (OVCAR-5 ovarian) [µM]	GI50 (RPMI-8226 leukemia) [µM]	GI50 (SF-295 CNS) [µM]	GI50 (UACC-257 melanoma) [µM]	GI50 (HL-60(TB) leukemia) [µM]
Oc1oc(-c2ccccc2)nc1/C=C1/C=NN=N1	> 100	> 100	> 100	> 100	> 100	> 100	> 100	> 100	> 100											
COc1ccc2nc(C3=CN(C4OC(CO)C(O)C(O)C4O)C4C=CC=CC34)sc2c1 (stereo not given)	58.4	> 100		> 100	> 100	83.2	> 100	82.3	89.3	15.6	39.7	24	76.5	> 100	> 100	26.8	40.3	26.6	28	
CN(C)CCC(=O)NCc1c2nc3ccccc3nc2n2ccccc12	45.9	> 100	> 100	> 100		> 100	> 100	> 100	> 100	19	43.1	66.1	> 100	47.2		> 100	18.5	61.1	73.1	58.1
Cc1sc2c(c1C)C(c1ccc(Cl)cc1)=N[C@@H](CC(=O)Nc1ccc(O)cc1)c1nnc(C)n1-2	24.8		8.21	69.7	> 67	30.3	11.8	22.4	26.9	0.837		0.262	16.1	9.45	0.585	11.6	0.168	2	0.632	0.179
COc1ccc(NCc2c(O)ccc3ccccc23)cc1	32	> 100		> 100	> 100	49.3	63.6	> 100	44.5				28							
C=C(C)C1CCC2(CO)C(O)CC3(C)C(CCC4C5(C)CCC(O)C(C)(C)C5CCC43C)C12 (stereo not given)	> 100	32.6	> 100	81.5		> 100		10.3	24.9				42.4							
NC(N)=N/N=C(/c1ccccc1)c1ccc(O)cc1O	96.4	64.7		> 100	> 100	> 100	79.8	> 100	> 100				34.5							
CC(C)(C)n1cc(-c2ccnc(NCCCNS(=O)(=O)c3ccc(Cl)cc3)c2)c(-c2cccc(O)c2)n1	4.54	5.36	6.37	4.62	4.64	3.19		3.37	3.81	2.03	2.04	1.92	3.91	1.92	1.94	1.57		1.79	1.86	2.51
C=CC1=C(C)C(Cc2[nH]c(/C=c3\[nH]/c(=C/C4=NC(=O)C(C)/C4=C\C)c(C)c3CCC(=O)O)c(CCC(=O)OC)c2C)NC1=O (stereo not given)	62.5	> 100	> 100	> 100		> 100	59.8	> 100	41.1	22	47.7	17.7	32	48.8		37.6	23.9	37.8	7.9	39.8
Cc1ccc2oc(=O)cc(C3c4ccc([nH]4)C(c4cc(=O)oc5ccc(C)cc45)c4ccc([nH]4)C(c4cc(=O)oc5ccc(C)cc45)c4ccc([nH]4)C(c4cc(=O)oc5ccc(C)cc45)c4ccc3[nH]4)c2c1 (stereo not given)	0.0937	4.48		1.1	3.81	2.71	0.578	0.284	2.46	0.0288	0.0632	0.212	0.796	0.0313	0.104	0.106	0.0516	0.027	0.183	
Nc1n[n+]([O-])c2cnccc2[n+]1[O-]	> 100		47.7	> 100	> 100	> 100	> 100	> 100	77.9				> 100							
NCCCn1c2c(c3ccc([N+](=O)[O-])cc3c1=O)C(=O)c1cc(Cl)ccc1-2	0.0369	0.189	< 0.016	0.292		0.193	0.0367	1.37	1.31	< 0.01	0.0241			< 0.01		0.0265	< 0.01	< 0.01	0.0526	< 0.01
Cc1[nH]ccc2cc3nc4ccccc4c3cc12	13.8		14.9	11.9	10.7	11.9	3.87	6.79	12.8	3.33		2.22	9.72	1.8	2.65	3.35	1.53	1.96	3.35	3.48
COc1cc(CCC(=O)NS(=O)(=O)c2ccccc2)cc(OC)c1OC	> 100	> 100	> 100		> 100	> 100	> 100	> 100	> 100				> 100							
CN(C(=O)C1CC1)C1C2CN3CCC(O2)C13 (stereo not given)	> 100	> 100	> 100		> 100	> 100	> 100	> 100	> 100				> 100							
ClC1=C(Cl)C(Cl)=C(Cl)C1=Cc1ccc(Cl)cc1Cl	0.618	4.37	3.1	0.926	5.89	4.01	1.99	3.08		0.241	0.523			0.276	0.53	1.33	0.355	0.733		0.403
COc1ccc(-c2cc3nccn3c(Nc3ncccc3C(N)=O)n2)cc1OC	> 100		24.2	> 100	> 100	> 100	> 100	> 100	> 100	2.42		1.18	> 100	> 26.6	> 100	> 100	2.75	> 100	> 100	2.13

SMILES	TGI (786-0 renal) [µM]	TGI (EKVX NSCLC) [µM]	TGI (HL-60(TB) leukemia) [µM]	TGI (NCI/ADR-RES ovarian) [µM]	TGI (OVCAR-4 ovarian) [µM]	TGI (OVCAR-5 ovarian) [µM]	TGI (RPMI-8226 leukemia) [µM]	TGI (SF-295 CNS) [µM]	TGI (UACC-257 melanoma) [µM]	GI50 (786-0 renal) [µM]	GI50 (EKVX NSCLC) [µM]	GI50 (NCI-H522 lung) [µM]	TGI (NCI-H522 lung) [µM]	GI50 (NCI/ADR-RES ovarian) [µM]	GI50 (OVCAR-4 ovarian) [µM]	GI50 (OVCAR-5 ovarian) [µM]	GI50 (RPMI-8226 leukemia) [µM]	GI50 (SF-295 CNS) [µM]	GI50 (UACC-257 melanoma) [µM]	GI50 (HL-60(TB) leukemia) [µM]
CCOC(CN(C)C(=O)OCC(Cl)(Cl)Cl)OCC	> 100	> 100	59.1	> 100	> 100	> 100		> 100	> 100				> 100							
COc1cc2c(cc1-c1c(C)noc1C)ncc1[nH]c(=O)n([C@H](C)c3ccccn3)c12	> 100		> 100	> 100	> 100	> 100	3.54	57.4	> 100	5.04		0.0975	7.07	10.9	1.94	22.4	0.124	0.649	0.415	0.144
CC(=O)[CH-]C(=O)c1ccccc1.CC(=O)[CH-]C(=O)c1ccccc1.CC[O-].O=C1C=C([O-])C(=O)c2ccccc21.[Ti+4]	> 100	> 100	80		> 100	> 100	85.8	> 100	86	> 100	25.9	10.6	69.3		> 100	95.3	16.9	37.9	8.49	16.1
COC(=O)C1CCC(N2C(=O)CCC2C(=O)OC)=N1 (stereo not given)	> 100	> 100	> 100		> 100	> 100	> 100	> 100	> 100				> 100							
O=C(O)C1=C(Cl)c2ccccc2S1(=O)=O	> 100	> 100	> 100		> 100	> 100	> 100	> 100	> 100				40.7							
OCCCCC#Cc1ccccc1C#Cc1cccs1	27.9	23.9		34.5	50.1	31.7	71	34.7	33	14.3	10.8	18.5	35.6	17.7	20.2	16.1	22	19	18.8	
O/N=C1/C(=C/c2ccccc2)CCCC1C(NO)c1ccccc1 (stereo not given)	> 100	> 100	5.03		> 100	> 100	> 100	> 100	> 100				> 100							
CN(Cc1ccccc1)c1nc(=[N+](C)C)ss1	> 100	> 100	> 100		> 100	> 100	> 100	> 100	> 100				> 100							
NC(=O)N/N=C1/CCCC/C1=C\c1ccccc1	> 100	> 100	> 100		> 100	> 100	> 100	> 100	> 100				> 100							
Cc1cc(Cl)ccc1Nc1nc(C(F)(F)F)ccc1C(=O)N/N=C/c1ccc(N(C)C)cc1	> 100	> 100	> 100	> 100		> 100	> 100	4.92	> 100	0.997	0.746	3.07	> 100	2.21		2.4	2.94	1.42	4.97	1.44
Cc1cccc(NC(=O)Cc2nc3ccccc3s2)c1C	> 100	> 100	> 100		> 100	> 100	> 100	> 100	> 100				> 100							
C=C(C)C(=O)N1c2ccc(OC)cc2CC1C(=O)OCC (stereo not given)	> 100	> 100		> 100	> 100	> 100		> 100	> 100				> 100							
O=C1C(Cl)=C(Nc2ccc3c(c2NC2=C(Cl)C(=O)c4ccccc4C2=O)C(=O)c2ccccc2C3=O)C(=O)c2ccccc21	9.6	4.18	14		2.99	4.4	9.37	3.2	3.95	2.91	1.83	2.48	8.7		1.42	2.06	1.66	1.38	1.88	2.36
CC(C)[C@H](O)C(=O)N[C@H]1Cc2ccc3c(c2)[C@]24C5=C(N=C(O5)[C@H](C(C)C)NC1=O)c1nc(Cl)c(o1)-c1c(Cl)[nH]c5cccc(c15)-c1cccc2c1N[C@H]4O3	2.77	> 10		3.22	> 10	> 10		3.87	3.27	0.00279			0.00562			4.26		< 0.001	< 0.001	
CC1(C)CC(O)CCCCCCOc2c(CN)cccc2NC(=O)c2nc(cnc2N)-c2ccc(cc2)S1(=O)=O (stereo not given)	1.97	5.78		13.4	3.43	6.34		3.02	3.4	0.0278	1.93	1.22	2.96	2.83	1.3	2.81		1.49	1.52	
CCCCCC/C=C/CCCCCCCc1cccc(O)c1C(=O)O	> 100	> 100	> 100		> 100	> 100	> 100	> 100	> 100				> 100							
C[n+]1ccc2[nH]c3ccccc3c2c1	> 100	> 100	> 100		> 100	> 100	> 100	> 100	> 100				> 100							
